Read-outs that look alike come from different tables or passages of the source.
Test system: 134 cancer cell lines
Experiment: Cell viability assay (ATPlite, 72 hours), IC50 on cancer cell line panel
[1] = Homo sapiens, A204, read-out: IC50 in cell proliferation assay
[2] = Homo sapiens, Kasumi 1, read-out: IC50 in cell proliferation assay
[3] = Homo sapiens, MDA-MB-453, read-out: IC50 in cell proliferation assay
[4] = Homo sapiens, MOLM-13, read-out: IC50 in cell proliferation assay
[5] = Homo sapiens, MV4-11, read-out: IC50 in cell proliferation assay
[6] = Homo sapiens, SK-N-SH, read-out: IC50 in cell proliferation assay

In the case of `C=CC(=O)N1CCC[C@@H](n2nc(-c3ccc(Oc4ccccc4)cc3)c3c(N)ncnc32)C1` [ibrutinib], the IC50 (Homo sapiens, 769-P, read-out: IC50 in cell proliferation assay) is reported as 624 nM, the IC50 (Homo sapiens, 786-0, read-out: IC50 in cell proliferation assay) is reported as 447 nM and the IC50 [1] is reported as 29200 nM. For the same compound, the IC50 (Homo sapiens, A498, read-out: IC50 in cell proliferation assay) was 10100 nM, the IC50 (Homo sapiens, A-427, read-out: IC50 in cell proliferation assay) was 7610 nM and the IC50 (Homo sapiens, ACHN, read-out: IC50 in cell proliferation assay) was 675 nM. It also gave an IC50 (Homo sapiens, AN3-CA, read-out: IC50 in cell proliferation assay) of 12700 nM, an IC50 (Homo sapiens, AU565, read-out: IC50 in cell proliferation assay) of 42 nM and an IC50 (Homo sapiens, BT-474, read-out: IC50 in cell proliferation assay) of 28 nM. For the same compound, the IC50 (Homo sapiens, BT-549, read-out: IC50 in cell proliferation assay) was 17500 nM, the IC50 (Homo sapiens, BXPC-3, read-out: IC50 in cell proliferation assay) was 1410 nM and the IC50 (Homo sapiens, C-33-A, read-out: IC50 in cell proliferation assay) was 46 nM. The IC50 (Homo sapiens, CAL-27, read-out: IC50 in cell proliferation assay) was 374 nM, the IC50 (Homo sapiens, CCRF-CEM, read-out: IC50 in cell proliferation assay) was 8440 nM and the IC50 (Homo sapiens, DU-145, read-out: IC50 in cell proliferation assay) was 148 nM. It also gave an IC50 (Homo sapiens, DU-4475, read-out: IC50 in cell proliferation assay) of 20100 nM, an IC50 (Homo sapiens, Daoy, read-out: IC50 in cell proliferation assay) of 23100 nM and an IC50 (Homo sapiens, DoTc2-4510, read-out: IC50 in cell proliferation assay) of 209 nM. The IC50 (Homo sapiens, EOL1, read-out: IC50 in cell proliferation assay) was 347 nM, the IC50 (Homo sapiens, FaDu, read-out: IC50 in cell proliferation assay) was 95 nM and the IC50 (Homo sapiens, HCC827, read-out: IC50 in cell proliferation assay) was 236 nM. The IC50 (Homo sapiens, HCT-116, read-out: IC50 in cell proliferation assay) was 26400 nM, the IC50 (Homo sapiens, HEC-1B, read-out: IC50 in cell proliferation assay) was 294 nM and the IC50 (Homo sapiens, HL-60, read-out: IC50 in cell proliferation assay) was 29700 nM. For the same compound, the IC50 (Homo sapiens, HT, read-out: IC50 in cell proliferation assay) was 902 nM, the IC50 (Homo sapiens, Hs-578T, read-out: IC50 in cell proliferation assay) was 15100 nM and the IC50 (Homo sapiens, HuTu80, read-out: IC50 in cell proliferation assay) was 3660 nM. For the same compound, the IC50 (Homo sapiens, J82, read-out: IC50 in cell proliferation assay) was 25500 nM, the IC50 (Homo sapiens, Jurkat E6.1, read-out: IC50 in cell proliferation assay) was 10800 nM and the IC50 (Homo sapiens, K562, read-out: IC50 in cell proliferation assay) was 7320 nM. For the same compound, the IC50 (Homo sapiens, KATO III, read-out: IC50 in cell proliferation assay) was 1040 nM, the IC50 (Homo sapiens, KG-1, read-out: IC50 in cell proliferation assay) was 1360 nM and the IC50 (Homo sapiens, KLE, read-out: IC50 in cell proliferation assay) was 75 nM. The IC50 (Homo sapiens, KMS-11, read-out: IC50 in cell proliferation assay) was 27900 nM, the IC50 (Homo sapiens, KU812, read-out: IC50 in cell proliferation assay) was 2810 nM and the IC50 [2] was 7920 nM. It also gave an IC50 (Homo sapiens, LC-2-ad, read-out: IC50 in cell proliferation assay) of 1830 nM, an IC50 (Homo sapiens, LS174T, read-out: IC50 in cell proliferation assay) of 11600 nM and an IC50 (Homo sapiens, LS-411N, read-out: IC50 in cell proliferation assay) of 23000 nM. The IC50 [3] was 411 nM, the IC50 (Homo sapiens, MDA-MB-468, read-out: IC50 in cell proliferation assay) was 1040 nM and the IC50 [4] was 426 nM. For the same compound, the IC50 (Homo sapiens, MOLT-4, read-out: IC50 in cell proliferation assay) was 1880 nM, the IC50 [5] was 1010 nM and the IC50 (Homo sapiens, MeWo, read-out: IC50 in cell proliferation assay) was 29100 nM. The IC50 (Homo sapiens, NCCIT, read-out: IC50 in cell proliferation assay) was 5100 nM, the IC50 (Homo sapiens, NCI-H82, read-out: IC50 in cell proliferation assay) was 18400 nM and the IC50 (Homo sapiens, NCI-H661, read-out: IC50 in cell proliferation assay) was 123 nM. For the same compound, the IC50 (Homo sapiens, NCI-H716, read-out: IC50 in cell proliferation assay) was 1300 nM, the IC50 (Homo sapiens, NCI-H1650, read-out: IC50 in cell proliferation assay) was 110 nM and the IC50 (Homo sapiens, NCI-H1975, read-out: IC50 in cell proliferation assay) was 576 nM. For the same compound, the IC50 (Homo sapiens, NCI-H2228, read-out: IC50 in cell proliferation assay) was 29900 nM, the IC50 (Homo sapiens, OVCAR-3, read-out: IC50 in cell proliferation assay) was 200 nM and the IC50 (Homo sapiens, PFSK-1, read-out: IC50 in cell proliferation assay) was 25600 nM. It also gave an IC50 (Homo sapiens, RL95-2, read-out: IC50 in cell proliferation assay) of 32 nM, an IC50 (Homo sapiens, RPMI-7951, read-out: IC50 in cell proliferation assay) of 26900 nM and an IC50 (Homo sapiens, Rec1, read-out: IC50 in cell proliferation assay) of 0.511 nM. For the same compound, the IC50 (Homo sapiens, SK-BR-3, read-out: IC50 in cell proliferation assay) was 11 nM, the IC50 (Homo sapiens, SK-N-MC, read-out: IC50 in cell proliferation assay) was 1520 nM and the IC50 [6] was 26300 nM. It also gave an IC50 (Homo sapiens, SNU-5, read-out: IC50 in cell proliferation assay) of 17600 nM, an IC50 (Homo sapiens, SNU-C2B, read-out: IC50 in cell proliferation assay) of 300 nM and an IC50 (Homo sapiens, SU-DHL-6, read-out: IC50 in cell proliferation assay) of 12 nM. It also gave an IC50 (Homo sapiens, SUP-T1, read-out: IC50 in cell proliferation assay) of 1310 nM, an IC50 (Homo sapiens, SW48, read-out: IC50 in cell proliferation assay) of 21 nM and an IC50 (Homo sapiens, SW780, read-out: IC50 in cell proliferation assay) of 18700 nM. It also gave an IC50 (Homo sapiens, T98G, read-out: IC50 in cell proliferation assay) of 20600 nM, an IC50 (Homo sapiens, TCC-SUP, read-out: IC50 in cell proliferation assay) of 18100 nM and an IC50 (Homo sapiens, U2OS, read-out: IC50 in cell proliferation assay) of 10100 nM. It also gave an IC50 (Homo sapiens, U-118-MG, read-out: IC50 in cell proliferation assay) of 23300 nM, an IC50 (L-82, read-out: IC50 in cell proliferation assay) of 17700 nM and an IC50 (Rh30, read-out: IC50 in cell proliferation assay) of 25700 nM.
Compound `CO[C@@H]1[C@H](N(C)C(=O)c2ccccc2)C[C@H]2O[C@]1(C)n1c3ccccc3c3c4c(c5c6ccccc6n2c5c31)C(=O)NC4` [midostaurin] has an IC50 [1] of 334 nM, an IC50 [2] of 320 nM and an IC50 [3] of 7640 nM. It also gave an IC50 [4] of 14 nM, an IC50 [5] of 15 nM and an IC50 [6] of 326 nM.

— paper PMC9516332 (Frontiers in Oncology, 2022)
